Holding throughout (assay): Minimum inhibitory concentration
Format in all cases: cell-based

The test system of test [1] is Staphylococcus aureus ATCC 6538p. Conditions: ATCC6538P.
Test [2] deals with Staphylococcus aureus MS353 C36. Conditions: MS353C36, read-out: Minimum Inhibitory Concentration. From the text:
(§1) Minimum Inhibitory Concentration (μg/ml)
*erythromycin resistant strain

Test [3] deals with Streptococcus pyogenes N.Y.5.
Test [4] concerns Staphylococcus aureus 0126.
From the text: as §1
**erythromycin and oreandomycin resistant strain.

Test [5] has as its system Staphylococcus aureus MS353.
Setting [6] is: Staphylococcus aureus 0126, erythromycin and oreandomycin resistant strain, read-out: Minimum Inhibitory Concentration.
The mark [7] stands for this setting: Staphylococcus aureus, 0126, read-out: Minimum Inhibitory Concentration.

≈ marks a conversion by molar mass, not a printed value. Where two headings read alike, the source gives them in different places. Where only a bound is given, the exact number is not on record here.

For the compound `CCC1OC(=O)C=CC(C)C(OC2OC(C)C(O)C(N(C)C)C2O)C(C)CC(C)C(=O)C=CC(C)=CC1COC1OC(C)C(O)C(OC)C1OC` (stereo not drawn) [19-deformyl-2,3-didehydro-3-dehydroxy-4'-demycarosyltylosin], the MIC was found to be 0.2 µg/mL (≈ 0.276 µM) in test [1]; 0.4 µg/mL (≈ 0.551 µM) in test [2]; 0.2 µg/mL (≈ 0.276 µM) in test [3]; 1.6 µg/mL (≈ 2.2 µM) in test [4] (setting [6]); 0.2 µg/mL (≈ 0.276 µM) in test [5].

With `CCC1OC(=O)CC(OC(=O)Cc2ccccc2)C(C)C(OC2OC(C)C(O)C(N(C)C)C2O)C(C)CC(C)C(=O)C=CC(C)=CC1COC1OC(C)C(O)C(OC)C1OC` (stereo not drawn) [19-deformyl-4'-demycarosyl-3-phenylacetyltylosin], the MIC in test [1] was 0.2 µg/mL (≈ 0.232 µM); in test [2], 0.1 µg/mL (≈ 0.116 µM); in test [3], at most 0.05 µg/mL; in test [4] (setting [7]), 0.4 µg/mL (≈ 0.464 µM); in test [5] it was 0.2 µg/mL (≈ 0.232 µM).

As to `CCC1OC(=O)CC(O)C(C)C(OC2OC(C)C(O)C(N(C)C)C2O)C(C)CC(C)C(=O)C=CC(C)=CC1COC1OC(C)C(O)C(OC)C1OC` (stereo not drawn) [19-deformyl-4'-demycarosyltylosin], the MIC in test [1] turned out to be 0.2 µg/mL (≈ 0.269 µM); in test [2] it was 0.2 µg/mL (≈ 0.269 µM); in test [3] it was 0.1 µg/mL (≈ 0.134 µM); in test [4] (setting [6]), 0.8 µg/mL (≈ 1.08 µM); in test [5], 0.2 µg/mL (≈ 0.269 µM).

For `CCC1OC(=O)CC(O)C(C)C(OC2OC(C)C(OC3CC(C)(O)C(O)C(C)O3)C(N(C)C)C2O)C(C)CC(C)C(=O)C=CC(C)=CC1COC1OC(C)C(O)C(OC)C1OC` (stereo not drawn) [19-deformyltylosin], the MIC in test [1] is 1.6 µg/mL (≈ 1.8 µM); in test [2], 0.8 µg/mL (≈ 0.901 µM); in test [3], 1.6 µg/mL (≈ 1.8 µM); in test [5] it was 1.6 µg/mL (≈ 1.8 µM).

Turning to `CCC1CC(C)C(=O)C=CC(C)=CC(COC2OC(C)C(O)C(OC)C2OC)C(CC)OC(=O)CC(O)C(C)C1OC1OC(C)C(O)C(N(C)C)C1O` (stereo not drawn) [20-deoxo-4'-demycarosyltylosin], the MIC in test [1] was found to be 0.2 µg/mL (≈ 0.264 µM); in test [2] it was 0.1 µg/mL (≈ 0.132 µM); in test [3], 0.2 µg/mL (≈ 0.264 µM); in test [5], 0.2 µg/mL (≈ 0.264 µM).

As to `CC[C@H]1OC(=O)[C@H](C)[C@@H](O[C@H]2C[C@@](C)(OC)[C@@H](O)[C@H](C)O2)[C@H](C)[C@@H](O[C@@H]2O[C@H](C)C[C@H](N(C)C)[C@H]2O)[C@](C)(O)C[C@@H](C)C(=O)[C@H](C)[C@@H](O)[C@]1(C)O` [erythromycin, reference compound], the MIC in test [1] is 0.2 µg/mL (≈ 0.273 µM); in test [2], above 100 µg/mL; in test [3], at most 0.05 µg/mL; in test [4] (setting [7]), above 100 µg/mL; in test [5], 0.2 µg/mL (≈ 0.273 µM).

With `CC[C@H]1OC(=O)C[C@@H](O)[C@H](C)[C@@H](O[C@@H]2O[C@H](C)[C@@H](O[C@H]3C[C@@](C)(O)[C@@H](O)[C@H](C)O3)[C@H](N(C)C)[C@H]2O)[C@@H](CC=O)C[C@@H](C)C(=O)/C=C/C(C)=C/[C@@H]1CO[C@@H]1O[C@H](C)[C@@H](O)[C@@H](OC)[C@H]1OC` [tylosin], the MIC in test [1] worked out at 1.6 µg/mL (≈ 1.75 µM); in test [2], 1.6 µg/mL (≈ 1.75 µM); in test [3] it was 0.4 µg/mL (≈ 0.437 µM); in test [4] (setting [7]), 1.6 µg/mL (≈ 1.75 µM); in test [5], 3.1 µg/mL (≈ 3.38 µM).
